Source: paper PMC9063426, “MAP kinases differentially bind and phosphorylate NOS3 via two unique NOS3 sites” (FEBS Open Bio, 2022)
Entries after “also recorded” stand apart in the source; their conditions may differ. Where a SMILES comes first, the peptide text is derived from it. Where no end group is shown, it is not given here.

Assays:
NOS3 [1] = test: TCSPC fluorescence lifetime, conformation of NOS3; conditions: FMN excited at 473 nm, detected at 525 nm
Method: Time‐resolved intensity decays were recorded using time‐correlated single‐photon counting fluorescence lifetime spectrometry (TCSPC FLT) to determine whether phosphorylation by JNK1α1 changes the conformation of NOS3.

NOS3 [2] = test: NOS3 phosphorylation status in HMEC-1 cells; assay type: cell-based, human; conditions: data not shown
Method: Human microvascular endothelial cells (HMEC‐1) (CRL‐3243, ATCC) were cultured in MCDB131 medium. HMEC‐1 cells were maintained as described by the ATCC in MCDB131 supplemented with 10% FBS, 1 µg·mL^−1 Hydrocortisone, 10 mM Glutamine, and 10 ng·mL^−1 Epidermal Growth Factor under an atmosphere of 5% CO2 at 37 °C.

ERK2 = target: T1, ERK2 (Rattus norvegicus, UniProt P63086); test: BLI binding of biotinylated NOS3 peptides to ERK2; conditions: for binding of phosphopeptide: BLI sensorgram, kinase analyte ERK2; for Kd / koff / kon: BLI, global one-state fit; for Kd: inactive (unphosphorylated) ERK2 31-1000 nM, biotinylated peptide ligand, 25 °C, PBS, 10% glycerol, 0.005% tween, 1 mM DTT; for koff / kon: inactive ERK2, 25 °C, PBS buffer
T1 construct: His; host or cells: E. coli BL21(DE3) pLysS
Method: (§1) Biolayer interferometry (BLI) experiments were performed on a FortéBio (Menlo Park, CA) Octet QK biosensor using streptavidin (SA) sensors. Assays were performed in opaque 96‐well microplates at 25 °C. All volumes were 200 μL. Active GST‐JNK1α1 (SignalChem) was biotinylated by amine crosslinking to NHS‐LC‐LC‐biotin (succinimidyl‐6‐[biotinamido]‐6‐hexanamidohexanoate) (Thermo Fisher, Waltham, MA, USA). Reactions were performed at a 5 : 1 molar ratio of biotin to protein for 30 min at room temperature followed by separation of protein from free biotin by passage over a desalting column. Biotinylated JNK1α1 was loaded onto sensors for 300 s, which was sufficient to saturate them. Baseline was established by dipping sensors into binding buffer (50 mM Tris, pH 7.4, 10 mM NaCl, 10% glycerol, 0.01% Tween‐20) prior to moving sensors to wells containing varying concentrations of serially diluted NOS3 in the same buffer. Association was measured for 300 s, after which sensors were moved to wells containing buffer only and dissociation was monitored for another 300 s. Raw data were normalized for baseline drift by subtracting signal from a ligand‐saturated sensor exposed to buffer only throughout the experiment and then iteratively fit to a one‐state global association‐then‐dissociation binding model using GRAPHPAD Prism. Total binding was used for analysis as nonspecific binding measured by exposing sensors without ligand to analyte was negligible at all NOS3 concentrations used; that is, total binding was effectively specific binding due to very low nonspecific binding.
(§2) For peptide binding experiments, N‐terminally biotinylated peptides (Biomatik) (Table 1) in PBS with 10% glycerol, 0.005% tween, and 1 mM DTT were loaded onto SA sensors as above. After establishing baseline, sensors were exposed to serial dilutions of analyte MAP kinases ranging from 31 to 1000 nM. Peptide experiments were performed using parameters identical to the protein ligand experiments excepting the buffer was PBS with 10% glycerol, 0.005% tween, and 1 mM DTT throughout.
(§3) We tested both hypothesized interaction sites and the impact of nearby phosphorylation sites using: (a) a nonphosphorylated peptide corresponding to the putative NtMAP site (Fig. 1); (b) the identical peptide with S114 phosphorylated; (c) a nonphosphorylated peptide corresponding to the AI loop site; and (d) an identical peptide phosphorylated at the position corresponding to S633. The resultant sensorgrams are shown in Fig. 4 fit to global one‐state binding models to determine binding parameters. While there are complexities present in the data (see Discussion), a one‐state models fit very well to all peptide‐kinase curves. All three kinases bound both unphosphorylated peptides with submicromolar affinity that in most cases approximated the affinity observed for full‐length NOS3 reported above and in our prior report.

p38α = target: T2, p38α (Homo sapiens, UniProt Q16539); test: BLI binding of biotinylated NOS3 peptides to p38α; conditions: for binding of phosphopeptide: BLI sensorgram, kinase analyte p38α; for koff / kon: BLI, inactive p38α, 25 °C, PBS buffer, global one-state fit
T2 construct: His; made in house; host or cells: E. coli BL21(DE3) pLysS
Method: as §1, §2, §3

JNK1α1 = target: T3, JNK1α1 (Homo sapiens, UniProt P45983); test: BLI binding of biotinylated NOS3 peptides to JNK1α1; conditions: for binding of phosphopeptide: BLI sensorgram, kinase analyte JNK1α1; for Kd / koff / kon: BLI, global one-state fit; for Kd: inactive (unphosphorylated) JNK1α1 31-1000 nM, biotinylated peptide ligand, 25 °C, PBS, 10% glycerol, 0.005% tween, 1 mM DTT; for koff / kon: inactive JNK1α1, 25 °C, PBS buffer
T3 construct: GST; host or cells: E. coli BL21(DE3) pLysS
Method: as §1, §2, §3

NOS3 [3] = test: Oxyhemoglobin assay of NO production by kinase-treated NOS3; assay type: biochemical, human; conditions: oxyHb assay, 2.5 µM NOS3 with ERK2 14 nM (N = 10), p38α 14 nM (N = 4), JNK1α1-GST 63 nM (N = 3) or PKA 14 nM (N = 4), 30 min; versus untreated NOS3
Method: (§4) Active (HIS‐NOS3) was incubated alone or with individual kinases (ERK2, p38α, JNK1α1, and PKA) in 100 µL reaction buffer (20 mM HEPES, 0.5 mM DTT, 5 mM MgCl2, 0.5 mM ATP, and 10% glycerol at a pH of 7.4). The reactions were performed at 22‐25 °C for up to 1 h, and for the examination of nitric oxide activity, samples were incubated on ice for the immediate detection of NO via the oxyhemoglobin to methemoglobin assay (see below). For immunoblotting analysis to examine phosphorylation, kinase samples were quenched with 2× sample buffer spiked with 25 mM DTT and heated to 95 °C for 5 min. Boiled samples (at equal volumes) were electrophoresed and transferred to PDVF for immunoblot staining.
The oxyhemoglobin assay (oxyHb assay) is a spectroscopic method that measures the oxidative reaction of oxyhemoglobin at 421 nm (oxyHb) and methemoglobin (metHb) at 401 nm. Kinase assay reactions quenched on ice were used to measure NO synthesis and consumption. All oxyHb reactions were performed at 25 °C in a BioTek 96‐well UV‐visible spectrophotometer. Each reaction (100 µL total volume) was mixed with 40 µL of reaction buffer (1 μM FAD, 1 μM FMN, 10% glycerol, 12 nM BH4, 100 μM L‐arginine, 10 mM Tris/HCl, pH 7.5 at 25°, 250 μM CaCl2, 0.20 mg·mL^−1 BSA, 0.31 mg Hemoglobin, 7–10 U Superoxide Dismutase, 7–10 U Catalase, and 17 μg Calmodulin) and up to 40 µL (6–10 µg) of phosphorylated NOS3. Absorbance at 401 nm and 421 nm were read for 1 m at 15‐s intervals. To initiate the reaction, 20 µL of 200 mM NADPH reconstituted in Tris/HCl (1.4 M pH 7.5 at room temperature) was added. Measurements were recorded for 10 min at 15‐s intervals.
To calculate NOS3 activity, the change in absorbance/unit time was divided by the extinction coefficient (ε401‐421 = 77 200 M ^−1cm^−1 (ε401 = 38 600 M ^−1cm^−1)). This yielded NOS3 activity in units of molar change/unit time. Activity of kinase exposed NOS3 was compared to the NOS3 control activity (comparably treated NOS3 but not phosphorylated), and the data are presented as a percent of the control NOS3.

NOS3 [4] = test: In vitro kinase assay with NOS3, phospho-specific immunoblotting; assay type: biochemical, human; conditions: active kinases with NOS3, 5 and 60 min; for phosphorylation of NOS3 at S114: immunoblot with anti-pS114; for phosphorylation of NOS3 at S600: immunoblot with anti-pS600
Method: as §4
All samples were loaded at equal volumes on 3–8% gradient tris‐acetate gels. All gels were transferred to PVDF membranes and transferred for either 2 h at 40V or for 20V overnight. Membranes were blocked with one block (Li‐Cor Biosciences) for 30 m and incubated with respective antibodies (at manufacturers recommend concentrations for immunoblotting, 1 : 500 for the anti‐pS600‐NOS3) overnight at 4 °C. Blots were brought to RT for 30 m and washed 3× with 1X TBST for 10 m, probed with a fluorometric secondary antibody (Li‐Cor IRDye®) for 1 h, and washed before visualizing with a Li‐Cor Odyssey.

NOS3 [5] = conditions: full-length NOS3; previously reported; ref [4]; cited from earlier work
Description: While there is substantial nonspecific binding inherent in the NOS1 sample, it is quite clear that there is no observable specific binding. […] This was not surprising since others have qualitatively shown an interaction between NOS3 and JNK [10] and the MAP kinases have similarities in the requirements of binding to activators and substrates. Lack of binding to NOS1 by all three MAP kinases examined thus far strengthens the interpretation that NOS3 is a node for MAP kinase signaling, while NOS1 and NOS2 are not.

NOS1 = conditions: previous studies; ref [4]; cited from earlier work
Description: While there is substantial nonspecific binding inherent in the NOS1 sample, it is quite clear that there is no observable specific binding. […] The NOS1 isoform lacks the pentabasic sequence in the autoinhibitory loop that we hypothe ...

NOS3 [6] = conditions: previous report, different (SignalChem GST) ERK2, bovine NOS3; ref [6]; cited from earlier work
Method: Portions of the NOS3 phosphorylation assays were analyzed for nitric oxide production, using PKA as a positive control. […] It is important to note that we cannot interpret the degree of NOS3 phosphorylation, just that NOS3 was phosphorylate ...

NOS3 [7] = conditions: earlier work, ERK2-treated NOS3; ref [6]; cited from earlier work

T2 sequence (Q16539 whole entry): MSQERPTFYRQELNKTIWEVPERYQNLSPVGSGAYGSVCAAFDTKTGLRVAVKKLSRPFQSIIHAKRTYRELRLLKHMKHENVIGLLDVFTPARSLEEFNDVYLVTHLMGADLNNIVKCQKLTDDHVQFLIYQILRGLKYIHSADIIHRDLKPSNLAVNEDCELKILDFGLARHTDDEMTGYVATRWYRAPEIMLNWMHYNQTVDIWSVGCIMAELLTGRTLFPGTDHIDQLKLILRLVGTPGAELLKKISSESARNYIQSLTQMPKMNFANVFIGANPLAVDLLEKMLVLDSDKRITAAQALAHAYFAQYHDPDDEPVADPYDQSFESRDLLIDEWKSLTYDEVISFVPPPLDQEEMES
T3 sequence (P45983 1-384 isoform P45983-2, species assumed): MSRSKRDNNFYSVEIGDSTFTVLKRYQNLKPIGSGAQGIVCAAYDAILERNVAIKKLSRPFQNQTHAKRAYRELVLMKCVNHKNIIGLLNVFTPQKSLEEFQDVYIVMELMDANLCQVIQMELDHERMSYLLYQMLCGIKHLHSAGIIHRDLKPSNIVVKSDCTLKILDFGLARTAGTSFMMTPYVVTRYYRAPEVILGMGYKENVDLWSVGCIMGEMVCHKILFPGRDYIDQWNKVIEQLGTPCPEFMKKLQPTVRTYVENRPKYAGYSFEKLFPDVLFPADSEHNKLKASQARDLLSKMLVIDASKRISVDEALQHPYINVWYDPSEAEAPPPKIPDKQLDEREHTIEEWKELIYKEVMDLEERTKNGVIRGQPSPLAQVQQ
T1 sequence (P63086 whole entry): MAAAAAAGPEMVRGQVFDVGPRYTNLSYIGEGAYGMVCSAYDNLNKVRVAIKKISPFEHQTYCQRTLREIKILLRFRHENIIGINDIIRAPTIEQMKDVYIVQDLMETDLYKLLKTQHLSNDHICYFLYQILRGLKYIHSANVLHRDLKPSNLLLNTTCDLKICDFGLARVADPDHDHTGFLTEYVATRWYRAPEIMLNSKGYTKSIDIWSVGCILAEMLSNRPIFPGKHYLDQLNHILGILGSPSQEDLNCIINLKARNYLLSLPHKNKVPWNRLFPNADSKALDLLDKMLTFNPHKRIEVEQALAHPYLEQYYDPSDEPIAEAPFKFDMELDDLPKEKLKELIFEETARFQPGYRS

Calmodulin [reference compound]
conformation of NOS3 (fluorescence decay) (NOS3 [1]; NOS3 holoenzyme): produced a change in conformation indicative of active NOS3
conformation of JNK1α1-treated NOS3 (fluorescence decay) (NOS3 [1]; calmodulin on JNK1α1-treated NOS3): produced the same degree of shift (activation) in JNK1α1‐treated NOS3

insulin: insulin, treatment of HMEC-1 cells
NOS3 phosphorylation status (NOS3 [2]): altered NOS3 phosphorylation status

Epidermal Growth Factor [EGF]
NOS3 phosphorylation status (NOS3 [2]): altered NOS3 phosphorylation status

YKIRFNSISCSDPLVSSWRRKRKES*SNTDSA [AI with phosphorylated S633, AI loop peptide phosphorylated at the position corresponding to S633]
binding of phosphopeptide (ERK2): negligible binding
binding of phosphopeptide (p38α): negligible binding
binding of phosphopeptide (JNK1α1): negligible binding

cAMP‐dependent protein kinase [PKA, reference compound]
NO production / NOS3 activity (NOS3 [3]): increased production of NO; also recorded: increased activity

CC(C)C[C@H](NC(=O)[C@H](CS)NC(=O)[C@H](CCCNC(=N)N)NC(=O)[C@H](CCCNC(=N)N)NC(=O)[C@@H]1CCCN1C(=O)[C@@H](NC(=O)[C@@H](N)CS)[C@@H](C)O)C(=O)NCC(=O)N[C@@H](CO)C(=O)N[C@@H](CC(C)C)C(=O)N[C@H](C(=O)N[C@@H](Cc1ccccc1)C(=O)N1CCC[C@H]1C(=O)N[C@@H](CCCNC(=N)N)C(=O)N[C@@H](CCCCN)C(=O)N[C@@H](CC(C)C)C(=O)N[C@@H](CCC(N)=O)C(=O)NCC(=O)N[C@@H](CCCNC(=N)N)C(=O)N1CCC[C@H]1C(=O)N[C@@H](CO)C(=O)N1CCC[C@H]1C(=O)NCC(=O)N1CCC[C@H]1C(=O)N1CCC[C@H]1C(=O)N[C@@H](C)C(=O)O)C(C)C [NtMAP] (H-CTPRRCLGSLVFPRKLQGRPSPGPPA-OH)
Kd (ERK2): 940 nM
koff (ERK2): 0.00623 s⁻¹
kon (ERK2): 6600 M⁻¹ s⁻¹
koff (p38α): 0.00053 s⁻¹
kon (p38α): 17300 M⁻¹ s⁻¹
Kd (JNK1α1): 38 nM
koff (JNK1α1): 0.00054 s⁻¹
kon (JNK1α1): 14100 M⁻¹ s⁻¹

CTPRRCLGSLVFPRKLQGRPS*PGPPA [NtMAP with phosphorylated S114, NtMAP peptide with S114 phosphorylated]
binding of phosphopeptide (ERK2): negligible binding
binding of phosphopeptide (p38α): negligible binding
binding of phosphopeptide (JNK1α1): negligible binding

mitogen‐activated protein kinase 1 [ERK2]
phosphorylation of NOS3 at S114 (NOS3 [4]): did not meaningfully phosphorylate S114 when compared to JNK1α1 and p38α
phosphorylation of NOS3 at S600 (NOS3 [4]): at S600; also recorded: phosphorylates S600; also recorded: robust when compared to JNK1α1
NO production / NOS3 activity (NOS3 [3]): do not significantly change NO production; also recorded: did not alter in vitro NOS3 activity
Kd (NOS3 [5]): 160 nM
binding to NOS1 (NOS1): no binding to NOS1
inhibition of NOS3 activity (NOS3 [6]): approximately 50%
conformation of NOS3 (NOS3 [7]): presented an altered conformation from untreated NOS3

YKIRFNSISCSDPLVSSWRRKRKESSNTDSA [AI]
Kd (ERK2): 170 nM
koff (ERK2): 0.002 s⁻¹
kon (ERK2): 12100 M⁻¹ s⁻¹
koff (p38α): 0.00096 s⁻¹
kon (p38α): 15900 M⁻¹ s⁻¹
Kd (JNK1α1): 3 nM
koff (JNK1α1): 0.00025 s⁻¹
kon (JNK1α1): 84600 M⁻¹ s⁻¹

mitogen‐activated protein kinase 14 [p38α]
phosphorylation of NOS3 at S114 (NOS3 [4]): phosphorylates both residues; also recorded: easily detected when compared to ERK2
phosphorylation of NOS3 at S600 (NOS3 [4]): phosphorylates both residues; also recorded: robust when compared to JNK1α1
NO production / NOS3 activity (NOS3 [3]): do not significantly change NO production; also recorded: did not alter in vitro NOS3 activity
Kd (NOS3 [5]): 80 nM
binding to NOS1 (NOS1): no binding to NOS1
